How the values were obtained:
[1] = system: Notch; assay: IL-10 expression in lymphatic node cells after transfer of OVA-specific Th cells and OVA/CpG immunization (Example 12); type: in vivo; conditions: mice received 10 μM/kg; lymphatic node cells after 5 days; FIG. 13
Protocol: 1·10^7 antigen specific (OVA-TZR transgenic) naive Th cells were transferred into recipient mice which were subsequently immunized s.c. with 50 μg of OVA/20 μg of CpG. After 5 days the lymphatic node cells were restimulated with PMA/ionomycin and analyzed using intracellular cytokine staining. IFN-γ/IL-10 double-positive cells were induced under these conditions. The expression of IL-10 was blocked in mice which had received 10 μM/kg of a Notch inhibitor (γ-secretase inhibitor, DBZ, Syncom) (FIG. 13).

[2] = system: Notch signaling pathway; assay: IL-10 expression of human T cells cocultured with plasmacytoid or myeloid dendritic cells (Example 15); type: cell-based; conditions: 85 nM inhibitor, SEB 1 μg/ml, 6 days
[3] = system: Notch signaling pathway; assay: IL-10 induction in T helper cells cultured with CD11c+ dendritic cells, IL-12 and/or CpG (Example 11); type: cell-based, mouse; conditions: 125 nM inhibitor, OVA peptide, 5 days, FIG. 12
Protocol: Antigen-specific (OVA-TZR transgenic) naive CD4+CD25-CD62L+T helper cells were isolated using flow cytometry, cultured with CD11c+ dendritic cells from spleen and lymphatic nodes (at a ratio of 20:1) in the presence of IL-12 (10 ng/ml) and/or 1 μM CpG and stimulated with OVA peptide (0.2 μg/ml). After 5 days the cells were restimulated with PMA/ionomycin, and their cytokine expression was analyzed using intracellular staining.
The expression of IL-10 can be blocked by a specific inhibitor of the Notch signaling pathway (γ-secretase inhibitor, Calbiochem, 125 nM).

[4] = system: Notch signaling pathway; assay: IL-10 induction in T helper cells cocultured with A20-B cells expressing Notch ligands DII-1 or DII-4 (Example 9); type: cell-based, mouse; conditions: 125 nM inhibitor; IL-12 10 ng/ml, OVA peptide, 5 days, intracellular staining; FIG. 10A
Protocol: Antigen-specific (OVA-TZR transgenic) naive CD4+CD25-CD62L+T helper cells were isolated using flow cytometry, cultured with A20-B cells (at a ratio of 2:1) in the presence of IL-12 (10 ng/ml), which cells express the Notch ligands DII-1 or DII-4, and stimulated with OVA peptide (0.2 μg/ml). After 5 days the cells were restimulated with PMA/ionomycin, and their cytokine expression was analyzed using intracellular staining.
This induction can be blocked in a specific manner by an inhibitor of the Notch signaling pathway (γ-secretase inhibitor, 125 nM Insolution γ-secretase inhibitor X, Calbiochem) (FIG. 10A). Further coculturing in the presence of the DII-1 and DII-4 ligands dramatically increases the IL-10 production (FIG. 10B).

[5] = system: CD11c-positive dendritic cells; assay: Expression of Notch ligands in dendritic cells after TLR stimulation (Example 10); type: cell-based, mice; conditions: stimulation for 15 h; 50 μg/ml pIC, 1 μg/ml LPS, 1 μg/ml flagellin or 1 μM CpG; FIG. 11
Protocol: CD11c-positive dendritic cells were isolated from spleen and lymphatic nodes of naive mice using flow cytometry and stimulated with 50 μg/ml pIC (TLR3), 1 μg/ml LPS (TLR4), 1 μg/ml flagellin (TLR5) or 1 μM CpG (TLR9) for 15 h.

[6] = system: STAT4; assay: IL-10 production (ELISA) of Notch3IC-transduced Th cells cultured with interleukin 27 (Example 5); type: cell-based, mice; conditions: 10 ng/ml interleukin 27, wild-type vs STAT4-deficient, FIG. 6
Protocol: Naive CD4+-CD25-CD62L+T helper cells from wild-type (C57BU6) or STAT4-deficient mice were isolated using flow cytometry. The cells were subsequently cultured with irradiated (30 Gy) MHCII+ antigen-presenting cells at a ratio of 1:4 in the presence of interleukin 27 (10 ng/ml). Stimulation was effected polyclonally using 0.5 μg/ml anti-CD3 and 1 μg/ml anti-CD28. After 24 h the cells were retro-virally transduced with active Notch3 (Notch3IC). To this end, the cells were centrifuged with virus supernatant for 75 min at 750×g and 32° C. After 5 days the cells were restimulated with PMA/ionomycin, and their cytokine production was analyzed using ELISA.
No IL-10 production is observed in the event of STAT4-deficient cells.

C[C@H](NC(=O)Cc1cc(F)cc(F)c1)C(=O)N[C@@H]1C(=O)N(C)c2ccccc2-c2ccccc21 [DBZ]
expression of IL-10 (IFN-γ/IL-10 double-positive cells) [1]: blocked

CC(C)C[C@H](NC(=O)[C@H](Cc1ccccc1)C[C@@H](O)[C@H](Cc1ccccc1)NC(=O)OC(C)(C)C)C(=O)N[C@@H](Cc1ccccc1)C(N)=O [Insolution γ-secretase inhibitor X]
IL-10 expression, naive T cells cocultured with plasmacytoid dendritic cells ([2]; FIG. 16A): blocked
IL-10 production, memory T cells cocultured with plasmacytoid or myeloid dendritic cells ([2]; FIG. 16B): blocked in either case
expression of IL-10 in the T cells [3]: blocked
IL-10 production induced by coculturing with Delta-like ligands [4]: blocked

flagellin
Expression of Delta-like 1 [5]: largely unchanged
Expression of Jagged 1 [5]: largely unchanged
expression of the Delta-like 4 Notch ligand [5]: enhanced

B1: IL-27: STAT4-activating cytokine of the IL-12 family (protein, UniProt Q8NEV9 29-243; Q14213 21-229, looked up)
Interleukin-27 subunit alpha: FPRPPGRPQLSLQELRREFTVSLHLARKLLSEVRGQAHRFAESHLPGVNLYLLPLGEQLPDVSLTFQAWRRLSDPERLCFISTTLQPFHALLGGLGTQGRWTNMERMQLWAMRLDLRDLQRHLRFQVLAAGFNLPEEEEEEEEEEEEERKGLLPGALGSALQGPAQVSWPQLLSTYRLLHSLELVLSRAVRELLLLSKAGHSVWPLGFPTLSPQP
Interleukin-27 subunit beta: RKGPPAALTLPRVQCRASRYPIAVDCSWTLPPAPNSTSPVSFIATYRLGMAARGHSWPCLQQTPTSTSCTITDVQLFSMAPYVLNVTAVHPWGSSSSFVPFITEHIIKPDPPEGVRLSPLAERQLQVQWEPPGSWPFPEIFSLKYWIRYKRQGAARFHRVGPIEATSFILRAVRPRARYYVQVAAQDLTDYGELSDWSLPATATMSLGK
IL-10 production together with Notch, STAT4-dependent [6]: induction of IL-10
